Measured values reported in patent US7138361B2, “Herbicidal heterocycles” (E. I. du Pont de Nemours and Company, priority 2000, dated 2006).

What was measured:
Assay type in all cases: in vivo
Sunflower [1] = experiment: Test C preemergence; details: visual evaluation after 12 to 14 days
rice (Oryza saliva) = experiment: Test C flooded paddy test; details: for Rice plant response rating: Flooded Paddy, scale 0 to 100, 0 no effect, 100 complete control; for Plant response rating, Rice: flooded paddy test, scale 0 to 100 (0 no effect, 100 complete control)
Outline: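 Flooded paddy, 2-leaf stage at treatment. Readout: visual % control vs untreated, 0–100, at 12–14 d in greenhouse.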

[2] = system: bermudagrass (Cynodon dactylon); experiment: Test C postemergence
Text: (§1) Seeds of plant species selected from bermudagrass (Cynodon dactylon), Surinam grass (Brachiaria decumbens), cocklebur (Xanthium strumarium), corn (Zea mays), crabgrass (Digitaria sanguinalis), woolly cupgrass (Eriochloa villosa), giant foxtail (Setaria faberii), goosegrass (Eleusine indica), johnsongrass (Sorghum halepense), kochia (Kochia scoparia), lambsquarters (Chenopodium album), morningglory (Ipomoea hederacea), yellow nutsedge (Cyperus esculentus), pigweed (Amaranthus retroflexus), common ragweed (Ambrosia elatior), soybean (Glycine max) and velvetleaf (Abutilon theophrasti) were planted and treated preemergence with test chemicals formulated in a non-phytotoxic solvent mixture which included a surfactant.
(§2) At the same time, plants selected from these crop and weed species and also winter barley (Hordeum vulgare), blackgrass (Alopecurus myosuroides), canary grass (Phalaris minor), chickweed (Stellaria media), downy brome (Bromus tectorum), green foxtail (Setaria viridis), Italian ryegrass (Lolium multiflorum), wheat (Triticum aestivum), wild oat (Avena fatua) and windgrass (Apera spica-venti) were treated with postemergence applications of some of the test chemicals formulated in the same manner. Plants ranged in height from 2 to 18 cm (1- to 4-leaf stage) for postemergence treatments. Plant species in the flooded paddy test consisted of rice (Oryza saliva), smallflower flatsedge (Cyperus difformis), duck salad (Heteranthera limosa) and barnyardgrass (Echinochloa crus-galli) grown to the 2-leaf stage for testing. Treated plants and controls were maintained in a greenhouse for 12 to 14 days, after which time all species were compared to controls and visually evaluated. Plant response ratings, summarized in Table C, are based on a scale of 0 to 100 where 0 is no effect and 100 is complete control. A dash (-) response means no test result.

[3] = system: morningglory (Ipomoea hederacea); experiment: Test C postemergence
Text: as §1, §2

[4] = system: chickweed (Stellaria media); experiment: Test C postemergence
Text: as §1, §2

[5] = system: lambsquarters (Chenopodium album); experiment: Test C postemergence
Text: as §1, §2

[6] = system: Surinam grass (Brachiaria decumbens); experiment: Test C postemergence
Text: as §1, §2

[7] = system: goosegrass (Eleusine indica); experiment: Test C postemergence
Text: as §1, §2

[8] = system: velvetleaf (Abutilon theophrasti); experiment: Test C postemergence
Text: as §1, §2

[9] = system: yellow nutsedge (Cyperus esculentus); experiment: Test C postemergence
Text: as §1, §2

corn (Zea mays) = experiment: Test C postemergence
Text: as §1, §2

[10] = system: giant foxtail (Setaria faberii); experiment: Test C postemergence
Text: as §1, §2

Sunflower [11] = experiment: Test C preemergence; details: scale 0 to 100
[12] = Rate 125 g/ha, scale 0 to 100, 0 no effect, 100 complete control
[13] = Rate 250 g/ha, scale 0 to 100 (0 no effect, 100 complete control)
[14] = Rate 500 g/ha, scale 0 to 100 (0 no effect, 100 complete control)

CCC(C)c1ccn(C2CCN(c3ccc(C)c(OC)c3)C2=O)n1 (centres unmarked) [Compound 80]
20: Plant response rating, Bermudagrass [2, 14] | Plant response rating, Chickweed ([4]; Rate 62 g/ha, scale 0 to 100) | Plant response rating, Chickweed [4, 12] | Plant response rating, Velvetleaf ([8]; Rate 62 g/ha, scale 0 to 100) | Plant response rating, Velvetleaf [8, 12] | Plant response rating, Velvetleaf [8, 13] | Plant response rating, Velvetleaf [8, 14] | Plant response rating, Nutsedge [9, 12] | Plant response rating, Nutsedge [9, 13] | Plant response rating, Nutsedge [9, 14] | Plant response rating, Foxtail, Giant [10, 14]
30: Plant response rating, Chickweed [4, 13]
50: Plant response rating, Rice (rice (Oryza saliva); Rate 125 g/ha) | Plant response rating, Morningglory ([3]; Rate 62 g/ha, scale 0 to 100)
10: Plant response rating, Lambsquarters ([5]; Rate 62 g/ha, scale 0 to 100)
60: Plant response rating (0 to 100), Sunflower (Sunflower [1]; Rate 500 g/ha) | Plant response rating, Morningglory [3, 12] | Plant response rating, Morningglory [3, 13] | Plant response rating, Chickweed [4, 14]
90: Rice plant response rating (rice (Oryza saliva); Rate 500 g/ha) | Plant response rating, Lambsquarters [5, 14]
0: Plant response rating, Bermudagrass ([2]; Rate 62 g/ha, scale 0 to 100) | Plant response rating, Bermudagrass [2, 12] | Plant response rating, Bermudagrass [2, 13] | Plant response rating, Surinam grass ([6]; Rate 62 g/ha, scale 0 to 100) | Plant response rating, Surinam grass [6, 12] | Plant response rating, Surinam grass [6, 13] | Plant response rating, Surinam grass [6, 14] | Plant response rating, Goosegrass ([7]; Rate 62 g/ha, scale 0 to 100) | Plant response rating, Goosegrass [7, 12] | Plant response rating, Goosegrass [7, 13] | Plant response rating, Goosegrass [7, 14] | Plant response rating, Nutsedge ([9]; Rate 62 g/ha, scale 0 to 100) | Plant response rating, Corn (corn (Zea mays); Rate 62 g/ha, scale 0 to 100) | Plant response rating, Corn (corn (Zea mays); [12]) | Plant response rating, Corn (corn (Zea mays); [13]) | Plant response rating, Corn (corn (Zea mays); [14]) | Plant response rating, Foxtail, Giant ([10]; Rate 62 g/ha, scale 0 to 100) | Plant response rating, Foxtail, Giant [10, 12] | Plant response rating, Foxtail, Giant [10, 13]
70: Rice plant response rating (rice (Oryza saliva); Rate 250 g/ha)
100: Plant response rating, Morningglory [3, 14]

O=C1C(n2ccc(C3CCC3)n2)SCN1c1cccc(OC(F)(F)F)c1 (centres unmarked) [Compound 38]
50: Rice plant response rating (rice (Oryza saliva); Rate 250 g/ha)
30: Plant response rating, Rice (rice (Oryza saliva); Rate 125 g/ha) | Plant response rating, Bermudagrass [2, 13] | Plant response rating, Lambsquarters ([5]; Rate 62 g/ha, scale 0 to 100) | Plant response rating, Lambsquarters [5, 12]
0: Plant response rating, Bermudagrass ([2]; Rate 62 g/ha, scale 0 to 100) | Plant response rating, Bermudagrass [2, 12] | Plant response rating, Morningglory ([3]; Rate 62 g/ha, scale 0 to 100) | Plant response rating, Morningglory [3, 12] | Plant response rating, Morningglory [3, 13] | Plant response rating, Chickweed ([4]; Rate 62 g/ha, scale 0 to 100) | Plant response rating, Chickweed [4, 12] | Plant response rating, Chickweed [4, 13] | Plant response rating, Chickweed [4, 14] | Plant response rating, Surinam grass ([6]; Rate 62 g/ha, scale 0 to 100) | Plant response rating, Surinam grass [6, 12] | Plant response rating, Surinam grass [6, 13] | Plant response rating, Surinam grass [6, 14] | Plant response rating, Goosegrass ([7]; Rate 62 g/ha, scale 0 to 100) | Plant response rating, Goosegrass [7, 12] | Plant response rating, Goosegrass [7, 13] | Plant response rating, Goosegrass [7, 14] | Plant response rating, Velvetleaf ([8]; Rate 62 g/ha, scale 0 to 100) | Plant response rating, Velvetleaf [8, 12] | Plant response rating, Velvetleaf [8, 13] | Plant response rating, Velvetleaf [8, 14] | Plant response rating, Nutsedge ([9]; Rate 62 g/ha, scale 0 to 100) | Plant response rating, Nutsedge [9, 12] | Plant response rating, Nutsedge [9, 13] | Plant response rating, Nutsedge [9, 14] | Plant response rating, Corn (corn (Zea mays); Rate 62 g/ha, scale 0 to 100) | Plant response rating, Corn (corn (Zea mays); [12]) | Plant response rating, Corn (corn (Zea mays); [13]) | Plant response rating, Corn (corn (Zea mays); [14]) | Plant response rating, Foxtail, Giant ([10]; Rate 62 g/ha, scale 0 to 100) | Plant response rating, Foxtail, Giant [10, 12] | Plant response rating, Foxtail, Giant [10, 13] | Plant response rating, Foxtail, Giant [10, 14]
70: Plant response rating, Bermudagrass [2, 14] | Plant response rating, Lambsquarters [5, 13] | Plant response rating, Lambsquarters [5, 14]
80: Rice plant response rating (rice (Oryza saliva); Rate 500 g/ha)
20: Plant response rating, Rice (rice (Oryza saliva); Rate 62 g/ha) | Plant response rating, Morningglory [3, 14]
60: Plant response rating (0 to 100), Sunflower (Sunflower [1]; Rate 250 g/ha)

CC(C)(C)c1ccn(C2CCN(c3cccc([S+]([O-])C(F)(F)F)c3)C2=O)n1 (centres unmarked) [Compound 101]
90: Rice plant response rating (rice (Oryza saliva); Rate 500 g/ha)
0: Plant response rating, Rice (rice (Oryza saliva); Rate 62 g/ha) | Plant response rating, Sunflower (Sunflower [11]; Rate 31 g/ha) | Plant response rating, Sunflower (Sunflower [11]; Rate 62 g/ha)
80: Rice plant response rating (rice (Oryza saliva); Rate 250 g/ha) | Plant response rating, Rice (rice (Oryza saliva); Rate 125 g/ha)

CCOc1cc(N2CCC(n3ccc(C(C)(C)C)n3)C2=O)ccc1C (centres unmarked) [Compound 106]
90: Rice plant response rating (rice (Oryza saliva); Rate 500 g/ha) | Plant response rating, Morningglory ([3]; Rate 31 g/ha, scale 0 to 100) | Plant response rating, Morningglory ([3]; Rate 62 g/ha, scale 0 to 100) | Plant response rating, Morningglory [3, 12]
100: Plant response rating, Morningglory [3, 13] | Plant response rating, Lambsquarters [5, 13]
30: Plant response rating, Velvetleaf ([8]; Rate 31 g/ha, scale 0 to 100)
20: Plant response rating, Rice (rice (Oryza saliva); Rate 62 g/ha) | Plant response rating, Bermudagrass [2, 13] | Plant response rating, Corn (corn (Zea mays); [13])
0: Plant response rating, Bermudagrass ([2]; Rate 31 g/ha, scale 0 to 100) | Plant response rating, Bermudagrass ([2]; Rate 62 g/ha, scale 0 to 100) | Plant response rating, Bermudagrass [2, 12] | Plant response rating, Surinam grass ([6]; Rate 31 g/ha, scale 0 to 100) | Plant response rating, Surinam grass ([6]; Rate 62 g/ha, scale 0 to 100) | Plant response rating, Surinam grass [6, 12] | Plant response rating, Surinam grass [6, 13] | Plant response rating, Goosegrass ([7]; Rate 31 g/ha, scale 0 to 100) | Plant response rating, Goosegrass ([7]; Rate 62 g/ha, scale 0 to 100) | Plant response rating, Goosegrass [7, 12] | Plant response rating, Nutsedge ([9]; Rate 31 g/ha, scale 0 to 100) | Plant response rating, Nutsedge ([9]; Rate 62 g/ha, scale 0 to 100) | Plant response rating, Nutsedge [9, 12] | Plant response rating, Nutsedge [9, 13] | Plant response rating, Corn (corn (Zea mays); Rate 31 g/ha, scale 0 to 100) | Plant response rating, Corn (corn (Zea mays); Rate 62 g/ha, scale 0 to 100) | Plant response rating, Corn (corn (Zea mays); [12]) | Plant response rating, Foxtail, Giant ([10]; Rate 31 g/ha, scale 0 to 100) | Plant response rating, Foxtail, Giant ([10]; Rate 62 g/ha, scale 0 to 100) | Plant response rating, Foxtail, Giant [10, 12]
70: Plant response rating, Velvetleaf [8, 13] | Plant response rating, Sunflower (Sunflower [11]; Rate 31 g/ha) | Plant response rating, Sunflower (Sunflower [11]; Rate 62 g/ha)
10: Plant response rating, Goosegrass [7, 13] | Plant response rating, Foxtail, Giant [10, 13]
60: Rice plant response rating (rice (Oryza saliva); Rate 250 g/ha) | Plant response rating, Rice (rice (Oryza saliva); Rate 125 g/ha) | Plant response rating, Velvetleaf ([8]; Rate 62 g/ha, scale 0 to 100) | Plant response rating, Velvetleaf [8, 12]
80: Plant response rating, Lambsquarters ([5]; Rate 31 g/ha, scale 0 to 100) | Plant response rating, Lambsquarters ([5]; Rate 62 g/ha, scale 0 to 100) | Plant response rating, Lambsquarters [5, 12]

CCCC(C)c1ccn(C2SCN(c3cccc(OC(F)(F)F)c3)C2=O)n1 (centres unmarked) [Compound 90]
20: Rice plant response rating (rice (Oryza saliva); Rate 500 g/ha)
0: Rice plant response rating (rice (Oryza saliva); Rate 250 g/ha) | Plant response rating, Rice (rice (Oryza saliva); Rate 62 g/ha) | Plant response rating, Rice (rice (Oryza saliva); Rate 125 g/ha) | Plant response rating, Sunflower (Sunflower [11]; Rate 31 g/ha) | Plant response rating, Sunflower (Sunflower [11]; Rate 62 g/ha)

COC(=O)c1cccc(N2CCC(n3ccc(C(C)(C)C)n3)C2=O)c1 (centres unmarked) [Compound 73]
50: Rice plant response rating (rice (Oryza saliva); Rate 250 g/ha)
60: Rice plant response rating (rice (Oryza saliva); Rate 500 g/ha)
40: Plant response rating, Sunflower (Sunflower [11]; Rate 31 g/ha)
0: Plant response rating, Rice (rice (Oryza saliva); Rate 62 g/ha)
20: Plant response rating, Rice (rice (Oryza saliva); Rate 125 g/ha)

CC(C)(C)c1ccn(C2CCN(c3cccc(Cl)c3)C2=O)n1 (centres unmarked) [Compound 43]
30: Rice plant response rating (rice (Oryza saliva); Rate 500 g/ha)
0: Rice plant response rating (rice (Oryza saliva); Rate 250 g/ha) | Plant response rating, Rice (rice (Oryza saliva); Rate 62 g/ha) | Plant response rating, Rice (rice (Oryza saliva); Rate 125 g/ha) | Plant response rating, Sunflower (Sunflower [11]; Rate 16 g/ha) | Plant response rating, Sunflower (Sunflower [11]; Rate 31 g/ha)

CC(C)OC(=O)c1cccc(N2CCC(n3ccc(C(C)(C)C)n3)C2=O)c1 (centres unmarked) [Compound 124]
0: Rice plant response rating (rice (Oryza saliva); Rate 250 g/ha) | Rice plant response rating (rice (Oryza saliva); Rate 500 g/ha) | Plant response rating, Rice (rice (Oryza saliva); Rate 62 g/ha) | Plant response rating, Rice (rice (Oryza saliva); Rate 125 g/ha) | Plant response rating, Sunflower (Sunflower [11]; Rate 31 g/ha) | Plant response rating, Sunflower (Sunflower [11]; Rate 62 g/ha)
